Data as given in patent publication US6476059B1, “Use of polycyclic 2-aminothiazole systems for the treatment of obesity” (Aventis Pharma Deutschland GmbH, priority 1999, dated 2002).

Tests used:
male NMRI mice = assay: Anorectic effect: cumulative condensed milk consumption after gavage; format: in vivo; conditions: oral dose 50 mg/kg by gavage, feed withdrawn for 24 hours; for Reduction in the cumulative milk consumption as % of the controls: compared with untreated control animals; for cumulative milk consumption by the treated animals: condensed milk offered 30 minutes after administration, consumption determined every half hour for 7 hours
Protocol: The anorectic effect was tested on male NMRI mice. After withdrawal of feed for 24 hours, the test product was administered by gavage. The animals were housed singly and had free access to drinking water and, 30 minutes after administration of the product, they were offered condensed milk. The consumption of condensed milk was determined, and the general behavior of the animals was inspected, every half hour for 7 hours. The measured milk consumption was compared with that of untreated control animals.

SMILES | melting point [°C] | Reduction in the cumulative milk consumption as % of the controls (male NMRI mice) [%] | cumulative milk consumption by the treated animals (male NMRI mice)
CS(=O)(=O)c1ccc2c(c1)-c1nc(N)sc1C2.Cl | > 230 |  | 
Br.CN(C)c1nc2c(s1)Cc1cc(C#N)ccc1-2 [Example 2, 2-Dimethylamino-8H-indeno[1,2-d]thiazole-6-carbonitrile hydrobromide] | > 300 | 85 | 5/0.76 ml
N#CNc1nc2c(s1)Cc1cc(Cl)ccc1-2 [Example 4, 6-Chloro-8H-indeno[1,2-d]thiazol-2-yl-cyanamide] | 225 |  | 
O=CNc1nc2c(s1)Cc1cc(Cl)ccc1-2 [Example 6, N-(6-chloro-8H-indeno[1,2-d]thiazol-2-yl)formamide] | 295 | 77 | 5/0.96 ml
N=C(Nc1ccccc1)Nc1nc2c(s1)Cc1cc(Cl)ccc1-2 [Example 7, N-(6-Chloro-8H-indeno[1,2-d]thiazol-2-yl)-N′-phenylguanidine] | 210 |  | 
CNc1nc2c(s1)Cc1cc(OCC(F)(F)C(F)(F)F)ccc1-2.Cl [Example 18, Methyl[6-(2,2,3,3,3-pentafluoropropoxy)-8H-indeno[1,2-d]thiazol-2-yl]amine hydrochloride] | 258 | 90 | 5/0.38 ml
CNc1nc2c(s1)Cc1cc(-c3cccnc3)ccc1-2.Cl [Example 26, Methyl(6-pyridin-3-yl-8H-indeno[1,2-d]thiazol-2-yl)amine hydrochloride] | 225 | 77 | 5/0.68 ml
Cc1cccc(Oc2ccc3c(c2)Cc2sc(N)nc2-3)c1.Cl [Example 27, 6-m-Tolyloxy-8H-indeno[1,2-d]thiazol-2-yl-amine hydrochloride] | 174 | 79 | 5/0.74 ml
